Laboratory results reported in patent publication US8183283B2, “Dendrite elongation inhibitor for melanocyte and skin preparation for external use containing the same” (Pola Chemical Industries Inc., priority 2002, dated 2012).

Test system: Normal human melanocyte
Test: Inhibitory action on the elongation of dendrites using human melanocytes
Type: cell-based
Excerpt: According to a method shown below, inhibitory action on the elongation of dendrites was examined using human melanocytes. (Reagent, etc.) Cells, basal media, and amplification additives were purchased from KURABO INDUSTRIES LTD.
(Cell) Normal human melanocyte
(Medium) Basal medium (Medium 1545) supplemented with reagents described below
(Reagent) Amplification additive: bovine pituitary extract (BPE) (final concentration of 0.4% v/v in the medium), fetal bovine serum (FBS) (final concentration of 0.5% v/v in the medium), human recombinant basic fibroblast growth factor (rFGF-B) (final concentration of 3 ng/ml in the medium), hydrocortisone (final concentration of 0.18 μg/ml in the medium), insulin (final concentration 5 μg/ml in the medium), transferrin (final concentration of 5 μg/ml in the medium), phorbol 12-myristate 13-acetate (PMA) (final concentration of 10 ng/ml in the medium), heparin (final concentration of 3 μg/ml in the medium), and PSA solution (mixture solution of penicillin concentration of 50,000 Unit/ml, streptomycin concentration of 50 μg/ml, and amphotericin B concentration of 12.5 μg/ml; 1-ml addition with respect to 500 ml of the medium) (Method) […]

Q: COc1ccc(-c2oc3cc(O)c(OC)c(O)c3c(=O)c2OC)cc1O [Centaureidin, 5,7-dihydroxy-3,6-dimethoxy-2-(5-hydroxy-4-methoxyphenyl)-4H-1-benzopyran-4-on] was tested. Which “Inhibition against the elongation of dendrites (in words)” value (24 hours after addition of the sample solution, versus control) did it give?
A: Its value is “elongation is inhibited”.

Q: What about the Length of dendrite (sample solution with 100 μg/ml Centaureidin, 50 μl added to 200 μl medium, observed 24 hours after addition, growth factor-supplemented medium) of the same compound?
A: Its Length of dendrite is 26 ± 8 μm.
